The test system of data set [1] is Anopheles gambiae G3 strain mosquitoes. Kind of data set: Anopheles gambiae laboratory mating assay (mating plug transfer). In kind it is in vivo. As for the experimental part:
Anopheles gambiae G3 strain mosquitoes from a laboratory colony were reared using standard conditions (26–28°C, 65–80% relative humidity, 12 h/12 h Light/Darkness (L:D) photoperiod). Mosquitoes were sexed as pupae and adult males and females were allowed to emerge in separate cages to ensure their status as virgins. Three-day-old virgin males were injected with 138 nl of 100 μM of inhibitor diluted in 5% DMSO, or with 138 nl of a 5% DMSO solution as a control. Mating experiments were performed four days after eclosion as described previously and couples were captured in copula. RNAi experiments were performed as previously described. Mated females were dissected within two hours of mating to determine the presence of the mating plug in their atrium.
Finally, A. gambiae laboratory mating assays were performed to test if the DHI inhibitors identified in the pilot screen could inhibit male transfer of the mating plug. Compound 3, 100 μM in DMSO, was administered to male mosquitoes by intrathoracic injection. Injected males were mated with virgin females, and their ability to transfer a mating plug to females was assessed (Table 1). […] Thus, injection of males with AgTG3 inhibitor 3 is at least as effective as injection of dsRNA to inhibit mating plug formation in A. gambiae males.

Data set [2] concerns the target T1, recombinant tobacco etch virus (TEV) protease (Tobacco etch virus, UniProt P04517).
T1 construct: recombinant tobacco etch virus (TEV) protease
The data set is described as follows: Cysteine protease inhibition assay, TEV protease (GST-gp78 cleavage, SDS-PAGE). In kind it is biochemical. As to conditions: 3 at 100 μM, compared to a DMSO control. As for the experimental part: The activity of recombinant tobacco etch virus (TEV) protease was determined by cleavage of a fusion protein containing a TEV cleavage site between GST and a 17 kDa fragment of human gp78. TEV and GST-gp78 were incubated at 37°C for 10 min at a substrate:enzyme mass ratio of 10:1. The reaction was stopped by adding 3× loading buffer (150 mM Tris–HCl pH 6.8, 300 mM DTT, 6% (w/v) SDS, 0.06% (w/v) bromophenol blue, 30% (v/v) glycerol). Samples were heated at 95°C for 3 min and separated by 4–20% gradient SDS-PAGE.
Transglutaminases and cysteine proteases have a similar catalytic mechanism involving an active site cysteine and formation of a thioacyl intermediate. […] To test this hypothesis, the inhibition of two cysteine proteases, human caspase-1 and recombinant tobacco etch virus (TEV) protease by 3 at 100 μM were tested using a chromogenic and SDS-PAGE assay, respectively (Figure 9). […] Neither human caspase-1 nor TEV are endogenous proteins in A. gambiae, which may well contain other endogenous targets of 1–3, not least the two other transglutaminases in the A. gambiae genome.

The target in data set [3] is AgTG3 (Anopheles gambiae, UniProt D2K8K8). Kind of data set: biochemical. Conditions: dose–response curves in the range of 0.5–100 μM, FITC-CAD plate assay; read-out: IC50 for inhibition of AgTG3. As for the experimental part:
Plugin-C (25 μg/well) was incubated in black 96-well Ni-coated plates (Pierce 15342) for 2 h at room temperature or overnight at 4°C. Plates were washed three times with 200 μL of TBS and loaded with 0.5 μg of AgTG3 in 50 μL TBS buffer. DHI inhibitors were added for 1 h to block the enzyme, followed by 50 μL of 2× assay buffer (2× TBS, 20 mM CaCl2, 100 μM FITC-CAD, 2 mM DTT). Wells were incubated for 60 min at room temperature, washed three times with 200 μL of TBS, and filled to a final volume of 100 μL for fluorescence measurements in a microplate reader (Biotek Synergy 2). The z-score was calculated based on the mean and standard deviation of three replicates of inhibitor compared to a DMSO control, zi=x¯DMSO-x¯i/σDMSO+σi .
The targeted chemical library was screened for inhibition of AgTG3 at 100 μM in a FITC-CAD plate assay (Figure 3A), performed in triplicate as previously described. Hit-calling was based on >67% decrease in fluorescence compared to DMSO and z > 5. Seven compounds fulfilled these criteria in the primary assay.
To verify the results of this preliminary assay, dose–response curves in the range of 0.5–100 μM were determined for 27 structurally related compounds within the targeted library (Additional file 3: Table S2 and Additional file 4: Table S3). […] Selected stereoisomers present in the targeted library were compared in equivalent dose–response assays. Inhibition of AgTG3 was specific for the (S)-DHI isomer of 1 (Figure 4A), the (R) isomer (4) displaying no activity (IC50 > 100 μM).

T1 sequence (P04517 2038-2279): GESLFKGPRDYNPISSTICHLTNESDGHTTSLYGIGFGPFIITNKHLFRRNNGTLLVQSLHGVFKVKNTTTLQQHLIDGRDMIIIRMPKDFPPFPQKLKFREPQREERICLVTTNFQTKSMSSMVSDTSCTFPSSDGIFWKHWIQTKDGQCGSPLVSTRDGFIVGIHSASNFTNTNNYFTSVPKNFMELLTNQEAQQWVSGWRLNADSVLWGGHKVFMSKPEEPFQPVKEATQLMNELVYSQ
Sequence of AgTG3 (D2K8K8 entry or part of it): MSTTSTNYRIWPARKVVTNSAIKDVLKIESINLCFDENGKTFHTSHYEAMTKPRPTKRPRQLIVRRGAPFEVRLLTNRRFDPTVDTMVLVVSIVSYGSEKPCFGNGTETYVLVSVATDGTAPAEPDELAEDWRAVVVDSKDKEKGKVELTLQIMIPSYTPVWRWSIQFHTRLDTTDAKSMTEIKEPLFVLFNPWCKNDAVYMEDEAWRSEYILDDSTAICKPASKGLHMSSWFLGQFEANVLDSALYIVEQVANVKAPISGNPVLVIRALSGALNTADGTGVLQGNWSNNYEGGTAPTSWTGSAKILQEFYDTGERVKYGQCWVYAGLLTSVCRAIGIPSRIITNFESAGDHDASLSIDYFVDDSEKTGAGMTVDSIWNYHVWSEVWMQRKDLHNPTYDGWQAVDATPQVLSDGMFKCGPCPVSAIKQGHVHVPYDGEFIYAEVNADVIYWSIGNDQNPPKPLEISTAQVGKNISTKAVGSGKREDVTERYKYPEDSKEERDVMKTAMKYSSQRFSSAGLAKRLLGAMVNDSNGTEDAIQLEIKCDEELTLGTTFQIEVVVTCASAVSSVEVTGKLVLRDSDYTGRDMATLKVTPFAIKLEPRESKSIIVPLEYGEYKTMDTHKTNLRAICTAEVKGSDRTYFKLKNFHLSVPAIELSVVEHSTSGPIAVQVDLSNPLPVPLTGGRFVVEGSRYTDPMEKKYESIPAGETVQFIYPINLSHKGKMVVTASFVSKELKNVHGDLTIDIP

As for `O=C(N[C@@H](Cc1c[nH]c2ccccc12)C(=O)NC[C@@H]1CC(Br)=NO1)OCc1cnc2ccccc2c1`, the “Reduction in transfer of the mating plug” value in data set [1] (intrathoracic injection of males) was determined as 15%. Besides, the “Mating plug transferred (number of females)” value in data set [1] (males injected intrathoracically (3: 138 nl of 100 μM; dsRNA as ref 39), N 75 (3), 77 (dsAgTG3)) is on record as 64. In addition, the “No plug transferred (number of females)” value in data set [1] (males injected intrathoracically (3: 138 nl of 100 μM; dsRNA as ref 39), N 75 (3), 77 (dsAgTG3), three independent experiments) was 11. Besides, the “Females that failed to receive a mating plug” value in data set [1] (males injected intrathoracically, DMSO control 3%, dsLacZ control 2%) is listed as 15%. In addition, in data set [1] (males injected with 3), the “Ill effect of injection on males” value is “no obvious ill effect from wounding”. Moreover, the “Inhibition of TEV protease” value in data set [2] is on record as “no inhibition of the protease”. Further, the IC50 (in general, the concentration at which inhibition is half-maximal) in data set [3] is 6.1 µM.

(Values after publication PMC4113009, “Dihydroisoxazole inhibitors of Anopheles gambiae seminal transglutaminase AgTG3” (Malaria Journal, 2014).)
